Experimental data: ChEMBL document CHEMBL1201862, “PubChem BioAssay data set” (2004)
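Protocol summary: plate cells (96-well), add compound at 5 concentrations, incubate 48 h, interpolate endpoints linearly. GI50 = concentration required for 50% inhibition of growth.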 The source made the active and inactive calls. No stated cut-off is given here; in the data, active = GI50 up to about 1.1 µM and inactive = higher.

Columns and labels:
Assay in all cases: inhibition of tumour cell growth, NCI panel, 48 h
786-0 = test system: 786-0
A498 = test system: A498
ACHN = test system: ACHN
CAKI-1 = test system: CAKI-1
COLO 205 = test system: COLO 205
DLD-1 = test system: DLD-1
HCC 2998 = test system: HCC 2998
HOP-62 = test system: HOP-62
HT-29 = test system: HT-29
K562 = test system: K562
M14 = test system: M14
NCI-H226 = test system: NCI-H226
NCI-H23 = test system: NCI-H23
NCI-H460 = test system: NCI-H460
OVCAR-3 = test system: OVCAR-3
OVCAR-8 = test system: OVCAR-8
SF-539 = test system: SF-539
SK-MEL-5 = test system: SK-MEL-5
UACC-62 = test system: UACC-62
BT-549 = test system: BT-549

Row | SMILES | GI50 (786-0) | GI50 (A498) | GI50 (ACHN) | GI50 (CAKI-1) | GI50 (COLO 205) | GI50 (DLD-1) | GI50 (HCC 2998) | GI50 (HOP-62) | GI50 (HT-29) | GI50 (K562) | GI50 (M14) | GI50 (NCI-H226) | GI50 (NCI-H23) | GI50 (NCI-H460) | GI50 (OVCAR-3) | GI50 (OVCAR-8) | GI50 (SF-539) | GI50 (SK-MEL-5) | GI50 (UACC-62) | GI50 (BT-549)
1 | NC(=O)c1ncn(C2OC(CO)C(O)C2O)c1NC(=S)NC(=O)c1ccccc1 (stereo unspecified) | > 100 µM (inactive) | > 100 µM (inactive) | > 100 µM (inactive) | > 100 µM (inactive) | > 100 µM (inactive) | > 100 µM (inactive) | > 100 µM (inactive) | > 100 µM (inactive) | > 100 µM (inactive) | > 100 µM (inactive) | > 100 µM (inactive) | > 100 µM (inactive) | > 100 µM (inactive) | > 100 µM (inactive) | > 100 µM (inactive) | > 100 µM (inactive) | > 100 µM (inactive) | > 100 µM (inactive) | > 100 µM (inactive) | 
2 | CNC(=O)/C(=C/c1ccc(OC)cc1)c1cc(OC)c(OC)c(OC)c1 | 3.47 µM (inactive) | 3.51 µM (inactive) | 8.65 µM (inactive) | 2.47 µM (inactive) | 1.16 µM (inactive) | 2.25 µM (inactive) | 2.45 µM (inactive) | 2.27 µM (inactive) | 0.593 µM (active) | 0.546 µM (active) | 1.45 µM (inactive) | 10.3 µM (inactive) | 3.52 µM (inactive) | 1.47 µM (inactive) | 0.641 µM (active) | 4.12 µM (inactive) | 1.34 µM (inactive) | 0.593 µM (active) | 0.67 µM (active) | 50.8 µM (inactive)
3 | O=C1C(Cl)N(c2c(Cl)cccc2Cl)C1c1c[nH]c2ccccc12 (stereo unspecified) |  |  |  |  | > 100 µM (inactive) | > 100 µM (inactive) |  | > 100 µM (inactive) | > 100 µM (inactive) | > 100 µM (inactive) | > 100 µM (inactive) |  | > 100 µM (inactive) | > 100 µM (inactive) | > 100 µM (inactive) | > 100 µM (inactive) | > 100 µM (inactive) | > 100 µM (inactive) | > 100 µM (inactive) | 
4 | CCCc1onc(CCC(=O)N(Cc2ccccc2)Cc2ccccc2)c1CC | > 100 µM (inactive) | > 100 µM (inactive) | > 100 µM (inactive) | > 100 µM (inactive) | > 100 µM (inactive) | > 100 µM (inactive) | > 100 µM (inactive) | > 100 µM (inactive) | > 100 µM (inactive) | > 100 µM (inactive) | > 100 µM (inactive) |  | > 100 µM (inactive) | > 100 µM (inactive) | > 100 µM (inactive) |  |  |  | > 100 µM (inactive) | 
5 | Cc1cc(C)nc(NS(=O)(=O)c2ccc(Nc3c4ccccc4nc4c(C(=O)N5CCN(CCOS(C)(=O)=O)CC5)ccc(Cl)c34)cc2)n1 | 43.7 µM (inactive) | > 100 µM (inactive) | > 100 µM (inactive) | > 100 µM (inactive) | > 100 µM (inactive) | > 100 µM (inactive) | > 100 µM (inactive) | > 100 µM (inactive) | > 100 µM (inactive) | > 100 µM (inactive) | 38 µM (inactive) | > 100 µM (inactive) | > 100 µM (inactive) | > 100 µM (inactive) | > 100 µM (inactive) | > 100 µM (inactive) | > 100 µM (inactive) | > 100 µM (inactive) | > 100 µM (inactive) | 
6 | COc1cc(CCc2ccc(OCCN(C)C)cc2)cc(OC)c1OC | > 100 µM (inactive) | 76 µM (inactive) | > 100 µM (inactive) | > 100 µM (inactive) | 20.3 µM (inactive) | > 100 µM (inactive) |  | 84.1 µM (inactive) | 34.2 µM (inactive) | 39.5 µM (inactive) | 68.4 µM (inactive) | 79.6 µM (inactive) |  | > 100 µM (inactive) | 64.1 µM (inactive) | > 100 µM (inactive) | > 100 µM (inactive) | 24.1 µM (inactive) | > 100 µM (inactive) | 
7 | CCCCCCCCCCCC1CCCC(C)N1 (stereo unspecified) |  | 51.5 µM (inactive) |  | 43.2 µM (inactive) | 36 µM (inactive) | 24.5 µM (inactive) | 46.3 µM (inactive) | 43.3 µM (inactive) | 20.6 µM (inactive) | 19.1 µM (inactive) |  | 76.9 µM (inactive) | 61.9 µM (inactive) | 45.1 µM (inactive) | 72.9 µM (inactive) | 80 µM (inactive) | 69.8 µM (inactive) | 36.4 µM (inactive) | 36.7 µM (inactive) | 
8 | C[C@@]12CC[C@H]3[C@@H]4CCC(=O)N[C@@]4(C)CC[C@@H]3[C@@]1(C)CC[C@H](OC(=O)Cc1ccc(N(CCCl)CCCl)cc1)C2 |  | 18.7 µM (inactive) |  | 16.5 µM (inactive) | 20.4 µM (inactive) | 19.7 µM (inactive) | 16.3 µM (inactive) | 16.8 µM (inactive) | 14.7 µM (inactive) | 19.5 µM (inactive) |  | 17.2 µM (inactive) | 15.1 µM (inactive) | 13.7 µM (inactive) | 17.9 µM (inactive) | 16.7 µM (inactive) | 17.3 µM (inactive) | 13.7 µM (inactive) | 15.5 µM (inactive) | 
9 | COC(=O)c1cc(CNCCc2c[nH]c3ccccc23)on1 | 33.8 µM (inactive) | > 100 µM (inactive) | > 60.8 µM (inactive) | > 78.2 µM (inactive) | > 100 µM (inactive) | > 100 µM (inactive) | > 95.5 µM (inactive) | > 100 µM (inactive) | > 100 µM (inactive) | > 100 µM (inactive) | > 100 µM (inactive) | > 100 µM (inactive) | > 100 µM (inactive) | > 58.1 µM (inactive) | > 100 µM (inactive) | > 100 µM (inactive) | 74.1 µM (inactive) | > 100 µM (inactive) | > 100 µM (inactive) | 
10 | CCCCCCCCCCCCCCCCNCCCN(C)CCCN | 15.2 µM (inactive) | 18.2 µM (inactive) | 19.4 µM (inactive) | 18.1 µM (inactive) | 22.1 µM (inactive) | 16.8 µM (inactive) | 18.3 µM (inactive) |  | 19.3 µM (inactive) | 20 µM (inactive) | 17.1 µM (inactive) | 19.8 µM (inactive) | 18.9 µM (inactive) | 17.7 µM (inactive) | 19.5 µM (inactive) | 20.7 µM (inactive) | 17.8 µM (inactive) | 16 µM (inactive) | 17.3 µM (inactive) | 
11 | Cn1c(=O)nc2n(-c3ccc(F)cc3)c3ccccc3nc-2c1=O | 28.2 µM (inactive) | 32.6 µM (inactive) | 13.9 µM (inactive) | 28.8 µM (inactive) | 6.84 µM (inactive) | 19.5 µM (inactive) | 19.1 µM (inactive) | 46.7 µM (inactive) | 14.1 µM (inactive) | 19.9 µM (inactive) | 13.9 µM (inactive) | 36.7 µM (inactive) | 20 µM (inactive) | 18.2 µM (inactive) | 3.13 µM (inactive) | 20.5 µM (inactive) | 21.3 µM (inactive) | 12.6 µM (inactive) | 12.2 µM (inactive) | 
12 | CC1=C(Oc2ccccc2)C(CCC(=O)O)c2c(O)cc(Cl)c(O)c21 (stereo unspecified) | > 100 µM (inactive) | > 100 µM (inactive) |  | > 100 µM (inactive) | > 100 µM (inactive) | > 100 µM (inactive) | > 100 µM (inactive) | > 100 µM (inactive) |  | > 100 µM (inactive) | > 100 µM (inactive) |  | > 100 µM (inactive) | > 100 µM (inactive) | > 100 µM (inactive) | > 100 µM (inactive) | > 100 µM (inactive) | > 100 µM (inactive) |  | 
